From BindingDB's records for doi:10.1006/jmbi.2000.3966 (Max-Planck-Institut Fuer Biochemie, 2000)

Key:
Experiment in all cases: Determination of Inhibition Constants
Conditions in all cases: pH 8; 25 °C
Serine protease 1 = target: T1, Serine protease 1 (Bos taurus, UniProt P00760)
T1 sequence (P00760 whole entry): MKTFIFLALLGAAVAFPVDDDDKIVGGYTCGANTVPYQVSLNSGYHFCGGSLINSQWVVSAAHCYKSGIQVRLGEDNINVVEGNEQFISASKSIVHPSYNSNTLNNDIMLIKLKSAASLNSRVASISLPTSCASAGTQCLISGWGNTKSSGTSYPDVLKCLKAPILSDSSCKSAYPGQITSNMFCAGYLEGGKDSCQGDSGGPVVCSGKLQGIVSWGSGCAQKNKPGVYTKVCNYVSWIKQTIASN
Method: (§1) The measurements were carried out on a microplate reader. Two concentrations of the substrate and five concentrations of the inhibitor were used in the assay. […] The Ki-values were calculated according to Dixon using a linear regression program. The Ki-values reported are means from at least three determinations.

[1] = target: Tissue-type plasminogen activator (Homo sapiens, UniProt P00750)
Chain of Tissue-type plasminogen activator (P00750 whole entry): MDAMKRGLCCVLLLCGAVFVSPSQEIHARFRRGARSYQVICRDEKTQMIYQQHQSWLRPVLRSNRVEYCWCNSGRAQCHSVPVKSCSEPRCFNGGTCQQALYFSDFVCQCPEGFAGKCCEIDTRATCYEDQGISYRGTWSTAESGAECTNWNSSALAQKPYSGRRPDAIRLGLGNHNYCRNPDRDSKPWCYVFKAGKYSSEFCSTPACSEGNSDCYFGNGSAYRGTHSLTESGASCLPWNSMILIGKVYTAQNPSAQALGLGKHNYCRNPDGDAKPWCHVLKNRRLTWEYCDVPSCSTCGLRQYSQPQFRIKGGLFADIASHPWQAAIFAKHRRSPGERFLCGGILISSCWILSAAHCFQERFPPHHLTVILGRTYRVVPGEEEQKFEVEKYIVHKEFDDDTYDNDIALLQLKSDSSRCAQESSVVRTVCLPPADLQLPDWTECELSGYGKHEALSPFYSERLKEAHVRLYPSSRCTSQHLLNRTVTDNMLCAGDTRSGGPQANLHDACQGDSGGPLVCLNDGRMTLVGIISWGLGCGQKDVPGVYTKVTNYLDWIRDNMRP
Method: as §1

[2] = target: Urokinase-type plasminogen activator (Homo sapiens, UniProt P00749)
Method: as §1

Row | Ki (Serine protease 1) | Ki [1] | Ki [2] | Compound
1 | 0.6 µM | 8.7 µM |  | CC(C)c1cc(C(C)C)c(S(=O)(=O)N[C@@H](Cc2cccc(C(=N)N)c2)C(=O)N2CCN(C(=O)CCN)CC2)c(C(C)C)c1 [3-[3-(4-beta-alanylpiperazin-1-yl)-3-oxo-2-({[2,4,6-tris(1-methylethyl)phenyl]sulfonyl}amino)propyl]benzenecarboximidamide]
2 | 46 µM | > 1000 µM | 2400 nM | NC(N)=Nc1ccc(CNC(=O)NC23CC4CC(CC(C4)C2)C3)cc1 [3-adamantan-1-yl-1-[(4-carbamimidamidophenyl)methyl]urea]
3 | 0.037 µM | 4.9 µM | 410 nM | CCOC(=O)N1CCN(C(=O)C(Cc2cccc(C(=N)N)c2)NS(=O)(=O)c2c(C(C)C)cc(C(C)C)cc2C(C)C)CC1 (stereo not given)

Row | Compound | Ki (Serine protease 1) | Ki [1] | Ki [2]
4 | N=C(N)NC(=O)c1nc(Cl)c(N)nc1N [3,5-diamino-N-carbamimidoyl-6-chloropyrazine-2-carboxamide] | 32 µM | > 1000 µM | 
